Columns and labels:
Experiment in all cases: relative viability (nuclei count vs DMSO), 5 days (fraction); higher = more cells survive
[1] = compound: C=CCn1c(=O)c2cnc(Nc3ccc(N4CCN(C)CC4)cc3)nc2n1-c1cccc(C(C)(C)O)n1 [Adavosertib] + CC1(C)CCC(c2ccc(Cl)cc2)=C(CN2CCN(c3ccc(C(=O)NS(=O)(=O)c4ccc(N[C@H](CCN5CCOCC5)CSc5ccccc5)c(S(=O)(=O)C(F)(F)F)c4)cc3)CC2)C1 [Navitoclax] (partner 0.5 µM)
Procedure, shortened: (§1)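 Nuclei were stained with Hoechst during a one-step fixation (final 0.05% Triton X-100, 1% formaldehyde, 1 ug/ml Hoechst) carried out 5 days after dosing, then counted on 4× images. The cells, lung cancer lines in 1536-well plates, had been dosed by pin tool the day after seeding with one drug alone or a fixed anchor-drug dose plus five library-drug doses (not always all listed) in √10 steps. Relative viability is the nuclei count in treated wells divided by that in vehicle wells, and each value is the median of duplicate plates.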

[2] = compound: C=CCn1c(=O)c2cnc(Nc3ccc(N4CCN(C)CC4)cc3)nc2n1-c1cccc(C(C)(C)O)n1 [Adavosertib] + COc1cc2c(Oc3ccc(NC(=O)C4(C(=O)Nc5ccc(F)cc5)CC4)cc3F)ccnc2cc1OCCCN1CCOCC1 [Foretinib] (partner 0.25 µM)
Procedure, shortened: as §1

[3] = compound: C=CCn1c(=O)c2cnc(Nc3ccc(N4CCN(C)CC4)cc3)nc2n1-c1cccc(C(C)(C)O)n1 [Adavosertib]
Procedure, shortened: (§2)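 Five library-drug doses spaced by √10 were pinned onto vehicle-anchored 1536-well plates of lung cancer cell lines that had been kept overnight at 37 °C. Cells went 5 days without medium change, then were fixed, permeabilised and Hoechst-stained together, imaged at 4× and counted by MetaXpress. Viability is the ratio of treated-well to vehicle-well nuclei, taken as a median over plates. Plates required control CV below 25% and at least one doubling.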

[4] = compound: COc1nc(N)nc2c1ncn2[C@@H]1O[C@H](CO)[C@@H](O)[C@@H]1O [Nelarabine]
Procedure, shortened: as §2

Cell Line	relative viability ([1]; first compound 0.01 µM)	relative viability ([1]; first compound 0.03162 µM)	relative viability ([1]; first compound 0.1 µM)	relative viability ([1]; first compound 0.3162 µM)	relative viability ([2]; first compound 0.01 µM)	relative viability ([2]; first compound 0.03162 µM)	relative viability ([2]; first compound 0.1 µM)	relative viability ([2]; first compound 0.3162 µM)	relative viability ([3]; 0.01 µM)	relative viability ([3]; 0.03162 µM)	relative viability ([3]; 0.1 µM)	relative viability ([3]; 0.3162 µM)	relative viability ([4]; 0.01 µM)	relative viability ([4]; 0.03162 µM)	relative viability ([4]; 0.1 µM)	relative viability ([4]; 0.3162 µM)	relative viability ([4]; 1 µM)
NCI-H1355	0.996	0.848	0.987	0.852	1.01	1.02	0.975	0.946	0.991	0.99	0.948	0.986	1.18	0.875	1.03	1.04	1.02
COR-L 105	0.886	0.72	0.746	0.617	0.781	0.872	1.24	0.925	0.865	0.885	0.807	0.747	1.01	1.12	0.971	0.842	1.04
201T	1.24	1.18	1.26	1.18	1.28	1.14	–	1.23	0.973	1.02	0.981	1.04	1.03	0.907	1.04	1.02	0.999
NCI-H2342	–	–	–	–	1.14	1.18	1.19	1.04	1.01	1.02	0.986	0.96	1.07	0.833	1.01	0.969	0.99
NCI-H838	1.16	1.11	1.18	1.13	1.06	1.06	1.04	1.19	0.978	0.919	0.996	0.948	1.3	0.893	0.986	1.05	1.04
NCI-H522	–	–	–	–	–	–	–	–	1.04	0.975	1.05	1.06	1.01	0.949	1.09	0.843	1.05
CAL-12T	1.03	1.33	1.19	1.02	1.12	1.09	1.16	1.09	0.948	1.07	1.1	0.856	1.15	1.02	0.969	0.99	1.05
NCI-H1755	0.983	1	1.02	0.926	0.881	0.893	0.912	0.918	1.02	0.998	0.958	0.86	1.01	0.948	0.988	1.1	1.1
LCLC-103H	–	–	–	–	0.922	0.794	0.871	0.517	1.03	0.981	0.954	0.985	1.15	1.01	1.03	1.03	1.07
NCI-H1666	0.927	0.83	0.935	0.673	0.93	0.953	0.961	0.887	0.975	1	1.05	0.997	1.05	1.15	0.978	0.97	0.967
LC-2-ad	0.452	0.411	0.392	0.216	0.823	0.995	0.958	0.889	0.979	1.02	1.01	1.13	1.14	1.05	0.984	1.05	0.989
PC-3 [JPC-3]	0.842	0.782	0.797	0.716	0.957	1.04	1.04	1.04	1.04	1.04	1.04	1.05	1.08	1.09	1.14	1.06	1.06
A-427	0.94	0.908	0.959	0.895	0.929	1.02	1.09	0.851	1.02	1.02	1.05	0.894	1.06	1.08	1.04	1.05	0.938
NCI-H1651	0.993	1.13	1.17	0.748	0.729	0.95	0.812	0.723	0.947	0.985	0.979	0.951	1.1	1.07	1.06	1.08	1.01
IA-LM	0.821	0.742	0.976	0.668	0.945	1.18	1.43	1.37	0.927	0.953	1	1.03	1.1	1.12	1.06	1.07	0.971
NCI-H1792	0.529	0.659	0.655	0.643	–	–	–	–	0.749	0.915	0.75	0.895	0.973	0.928	1.16	1.06	0.855
NCI-H1623	–	–	–	–	0.863	0.863	0.854	0.933	0.895	0.915	0.949	1.01	0.869	1.12	0.965	0.979	0.931
NCI-H1648	–	–	–	–	–	–	–	–	0.907	0.847	0.838	0.71	0.713	0.929	0.776	1.11	0.881
NCI-H650	–	–	–	–	1.06	1.01	1.06	0.889	0.896	0.972	1.03	0.859	0.942	0.996	0.962	1	1.04
NCI-H661	–	–	–	–	1.07	1.07	1.12	0.839	0.996	1.03	1.08	0.769	1.07	1.14	1	1.04	0.999
ABC-1	–	–	–	–	0.909	1.31	1.39	1.03	0.885	0.893	0.948	0.96	1.1	0.911	0.988	1.11	0.943

— the supplement of paper PMC10307832
